Source: the supplement of paper PMC4862054

The compounds below were run on MDA-MB-453 (assay: normalised response (% of control), CellTiter-Glo; higher = more viable cells (100 = DMSO, 0 = benzethonium chloride kill control)). Conditions: incubation time: 72 h.
Summary of the method: (§1)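 Values are normalised signals, each belonging to one concentration of the series. Breast cancer cells (20 µl suspension) were seeded into 384-well plates with compound at 5 concentrations in 10-fold steps over a compound-specific 10,000-fold range and incubated 72 h. Readouts were CellTox Green fluorescence (485/520 nm), then CellTiter-Glo luminescence after 10 min at room temperature, with each plate set to 0.1 % DMSO as 100 and a positive kill control as 0.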

Q: How did the normalised response turn out when `N#Cc1ccc(COC[C@H]2O[C@@H](n3c(NCc4ccc(Cl)c(Cl)c4)nc4c(N)ncnc43)[C@H](O)[C@@H]2O)cc1` (1 nM) was run?
A: Its normalised response is 112%.

Q: For `COc1cc(OC2CCN(C)CC2)ccc1Nc1ncc2c(n1)n(C1CCCC1)c(=O)n2C` [AZ 3146] (1 nM), which normalised response is on record?
A: Its normalised response is 112%.

Q: With `CN(C)c1nc(N(C)C)nc(N(C)C)n1` [Altretamine] (1 nM) as the compound, how does the normalised response read?
A: Its normalised response is 124%.

Q: How did the normalised response turn out when `O=C(/C=C/c1cccc(S(=O)(=O)Nc2ccccc2)c1)NO` [Belinostat] (1 nM) was run?
A: The normalised response was 97%.

Q: `O=P1(N(CCCl)CCCl)NCCCO1` (stereo not given) [Cyclophosphamide] (4 nM) was tested. Which normalised response did it give?
A: The normalised response was 115%.

What follows are compounds tested on HDQ-P1 in the same assay as above. Conditions: incubation time: 72 h.
Summary of the method: as §1

Q: `N#Cc1ccc(COC[C@H]2O[C@@H](n3c(NCc4ccc(Cl)c(Cl)c4)nc4c(N)ncnc43)[C@H](O)[C@@H]2O)cc1` (1 nM) was tested. Which normalised response did it give?
A: The normalised response was 108%.

Q: How did the normalised response turn out when `COc1cc(OC2CCN(C)CC2)ccc1Nc1ncc2c(n1)n(C1CCCC1)c(=O)n2C` [AZ 3146] (1 nM) was run?
A: Its normalised response is 98.4%.

Q: How did the normalised response turn out when `CN(C)c1nc(N(C)C)nc(N(C)C)n1` [Altretamine] (1 nM) was run?
A: The normalised response was 101%.

Q: `O=C(/C=C/c1cccc(S(=O)(=O)Nc2ccccc2)c1)NO` [Belinostat] (1 nM) was tested. Which normalised response did it give?
A: The normalised response was 93.5%.

Q: For `O=P1(N(CCCl)CCCl)NCCCO1` (stereo not given) [Cyclophosphamide] (4 nM), which normalised response is on record?
A: Its normalised response is 97.7%.

What follows are compounds tested on MDA-MB-436 in the same assay as above. Conditions: incubation time: 72 h.
Summary of the method: as §1

Q: How did the normalised response turn out when `N#Cc1ccc(COC[C@H]2O[C@@H](n3c(NCc4ccc(Cl)c(Cl)c4)nc4c(N)ncnc43)[C@H](O)[C@@H]2O)cc1` (1 nM) was run?
A: The normalised response was 104%.

Q: With `COc1cc(OC2CCN(C)CC2)ccc1Nc1ncc2c(n1)n(C1CCCC1)c(=O)n2C` [AZ 3146] (1 nM) as the compound, how does the normalised response read?
A: Its normalised response is 85.8%.

Q: With `CN(C)c1nc(N(C)C)nc(N(C)C)n1` [Altretamine] (1 nM) as the compound, how does the normalised response read?
A: Its normalised response is 97.9%.

Q: Which normalised response does the source give for `O=C(/C=C/c1cccc(S(=O)(=O)Nc2ccccc2)c1)NO` [Belinostat] (1 nM) here?
A: Its normalised response is 91.7%.

Q: Which normalised response does the source give for `O=P1(N(CCCl)CCCl)NCCCO1` (stereo not given) [Cyclophosphamide] (4 nM) here?
A: The normalised response was 94%.

The compounds below were run on BT-549 in the same assay as above. Conditions: incubation time: 72 h.
Summary of the method: as §1

Q: `N#Cc1ccc(COC[C@H]2O[C@@H](n3c(NCc4ccc(Cl)c(Cl)c4)nc4c(N)ncnc43)[C@H](O)[C@@H]2O)cc1` (1 nM) was tested. Which normalised response did it give?
A: The normalised response was 99.8%.

Q: `COc1cc(OC2CCN(C)CC2)ccc1Nc1ncc2c(n1)n(C1CCCC1)c(=O)n2C` [AZ 3146] (1 nM) was tested. Which normalised response did it give?
A: Its normalised response is 107%.

Q: `CN(C)c1nc(N(C)C)nc(N(C)C)n1` [Altretamine] (1 nM) was tested. Which normalised response did it give?
A: Its normalised response is 95%.

Q: For `O=C(/C=C/c1cccc(S(=O)(=O)Nc2ccccc2)c1)NO` [Belinostat] (1 nM), which normalised response is on record?
A: Its normalised response is 96.1%.

Q: For `O=P1(N(CCCl)CCCl)NCCCO1` (stereo not given) [Cyclophosphamide] (4 nM), which normalised response is on record?
A: The normalised response was 98.5%.

Each compound was assayed on MCF-10A in the same assay as above. Conditions: incubation time: 72 h.
Summary of the method: as §1

Q: For `N#Cc1ccc(COC[C@H]2O[C@@H](n3c(NCc4ccc(Cl)c(Cl)c4)nc4c(N)ncnc43)[C@H](O)[C@@H]2O)cc1` (1 nM), which normalised response is on record?
A: The normalised response was 112%.

Q: For `COc1cc(OC2CCN(C)CC2)ccc1Nc1ncc2c(n1)n(C1CCCC1)c(=O)n2C` [AZ 3146] (1 nM), which normalised response is on record?
A: Its normalised response is 94.2%.

Q: For `CN(C)c1nc(N(C)C)nc(N(C)C)n1` [Altretamine] (1 nM), which normalised response is on record?
A: The normalised response was 102%.

Q: For `O=C(/C=C/c1cccc(S(=O)(=O)Nc2ccccc2)c1)NO` [Belinostat] (1 nM), which normalised response is on record?
A: The normalised response was 87%.

Q: `O=P1(N(CCCl)CCCl)NCCCO1` (stereo not given) [Cyclophosphamide] (4 nM) was tested. Which normalised response did it give?
A: The normalised response was 111%.

These compounds were tested on Hs578T in the same assay as above. Conditions: incubation time: 72 h.
Summary of the method: as §1

Q: With `N#Cc1ccc(COC[C@H]2O[C@@H](n3c(NCc4ccc(Cl)c(Cl)c4)nc4c(N)ncnc43)[C@H](O)[C@@H]2O)cc1` (1 nM) as the compound, how does the normalised response read?
A: The normalised response was 101%.

Q: Which normalised response does the source give for `COc1cc(OC2CCN(C)CC2)ccc1Nc1ncc2c(n1)n(C1CCCC1)c(=O)n2C` [AZ 3146] (1 nM) here?
A: Its normalised response is 93.7%.

Q: `CN(C)c1nc(N(C)C)nc(N(C)C)n1` [Altretamine] (1 nM) was tested. Which normalised response did it give?
A: Its normalised response is 102%.

Q: `O=C(/C=C/c1cccc(S(=O)(=O)Nc2ccccc2)c1)NO` [Belinostat] (1 nM) was tested. Which normalised response did it give?
A: Its normalised response is 92.9%.

Q: For `O=P1(N(CCCl)CCCl)NCCCO1` (stereo not given) [Cyclophosphamide] (4 nM), which normalised response is on record?
A: Its normalised response is 101%.

The compounds below were run on CAL-148 in the same assay as above. Conditions: incubation time: 72 h.
Summary of the method: as §1

Q: `N#Cc1ccc(COC[C@H]2O[C@@H](n3c(NCc4ccc(Cl)c(Cl)c4)nc4c(N)ncnc43)[C@H](O)[C@@H]2O)cc1` (1 nM) was tested. Which normalised response did it give?
A: Its normalised response is 110%.

Q: With `COc1cc(OC2CCN(C)CC2)ccc1Nc1ncc2c(n1)n(C1CCCC1)c(=O)n2C` [AZ 3146] (1 nM) as the compound, how does the normalised response read?
A: The normalised response was 101%.

Q: With `CN(C)c1nc(N(C)C)nc(N(C)C)n1` [Altretamine] (1 nM) as the compound, how does the normalised response read?
A: The normalised response was 96.5%.

Q: `O=C(/C=C/c1cccc(S(=O)(=O)Nc2ccccc2)c1)NO` [Belinostat] (1 nM) was tested. Which normalised response did it give?
A: The normalised response was 99.9%.

Q: For `O=P1(N(CCCl)CCCl)NCCCO1` (stereo not given) [Cyclophosphamide] (4 nM), which normalised response is on record?
A: Its normalised response is 99.6%.

These compounds were tested on DU-4475 in the same assay as above. Conditions: incubation time: 72 h.
Summary of the method: as §1

Q: Which normalised response does the source give for `N#Cc1ccc(COC[C@H]2O[C@@H](n3c(NCc4ccc(Cl)c(Cl)c4)nc4c(N)ncnc43)[C@H](O)[C@@H]2O)cc1` (1 nM) here?
A: The normalised response was 99.1%.

Q: `COc1cc(OC2CCN(C)CC2)ccc1Nc1ncc2c(n1)n(C1CCCC1)c(=O)n2C` [AZ 3146] (1 nM) was tested. Which normalised response did it give?
A: The normalised response was 90.9%.

Q: How did the normalised response turn out when `CN(C)c1nc(N(C)C)nc(N(C)C)n1` [Altretamine] (1 nM) was run?
A: The normalised response was 104%.

Q: With `O=C(/C=C/c1cccc(S(=O)(=O)Nc2ccccc2)c1)NO` [Belinostat] (1 nM) as the compound, how does the normalised response read?
A: Its normalised response is 98.9%.

Q: Which normalised response does the source give for `O=P1(N(CCCl)CCCl)NCCCO1` (stereo not given) [Cyclophosphamide] (4 nM) here?
A: Its normalised response is 103%.

These compounds were tested on HCC1937 (assay: normalised viability (% of control), CellTiter-Blue; higher = more viable cells (100 = DMSO, 0 = benzethonium chloride kill control)). Conditions: incubation time: 72 h.
Experimental: (§2)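 DSRT, CellTiter-Blue viability, 72 h incubation. Signal is normalised to DMSO and benzethonium chloride controls. Value is the normalised response at dose 1.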

Q: With `N#Cc1ccc(COC[C@H]2O[C@@H](n3c(NCc4ccc(Cl)c(Cl)c4)nc4c(N)ncnc43)[C@H](O)[C@@H]2O)cc1` (1 nM) as the compound, how does the normalised viability read?
A: The normalised viability was 84.1%.

Q: With `COc1cc(OC2CCN(C)CC2)ccc1Nc1ncc2c(n1)n(C1CCCC1)c(=O)n2C` [AZ 3146] (1 nM) as the compound, how does the normalised viability read?
A: The normalised viability was 95.2%.

Q: With `CN(C)c1nc(N(C)C)nc(N(C)C)n1` [Altretamine] (1 nM) as the compound, how does the normalised viability read?
A: Its normalised viability is 105%.

Q: Which normalised viability does the source give for `Nc1cc(C(F)(F)F)c(-c2cc(N3CCOCC3)nc(N3CCOCC3)n2)cn1` [BKM-120] (1 nM) here?
A: Its normalised viability is 95.9%.

Q: Which normalised viability does the source give for `O=C(/C=C/c1cccc(S(=O)(=O)Nc2ccccc2)c1)NO` [Belinostat] (1 nM) here?
A: Its normalised viability is 111%.

Q: For `O=P1(N(CCCl)CCCl)NCCCO1` (stereo not given) [Cyclophosphamide] (4 nM), which normalised viability is on record?
A: The normalised viability was 82.9%.

Q: With `S=P(N1CC1)(N1CC1)N1CC1` [Thio-TEPA] (10 nM) as the compound, how does the normalised viability read?
A: The normalised viability was 90%.

What follows are compounds tested on CAL-120 in the same assay as above. Conditions: incubation time: 72 h.
Experimental: as §2

Q: Which normalised viability does the source give for `N#Cc1ccc(COC[C@H]2O[C@@H](n3c(NCc4ccc(Cl)c(Cl)c4)nc4c(N)ncnc43)[C@H](O)[C@@H]2O)cc1` (1 nM) here?
A: The normalised viability was 101%.

Q: Which normalised viability does the source give for `COc1cc(OC2CCN(C)CC2)ccc1Nc1ncc2c(n1)n(C1CCCC1)c(=O)n2C` [AZ 3146] (1 nM) here?
A: The normalised viability was 116%.

Q: `CN(C)c1nc(N(C)C)nc(N(C)C)n1` [Altretamine] (1 nM) was tested. Which normalised viability did it give?
A: The normalised viability was 88.2%.

Q: For `Nc1cc(C(F)(F)F)c(-c2cc(N3CCOCC3)nc(N3CCOCC3)n2)cn1` [BKM-120] (1 nM), which normalised viability is on record?
A: The normalised viability was 85.6%.

Q: With `O=C(/C=C/c1cccc(S(=O)(=O)Nc2ccccc2)c1)NO` [Belinostat] (1 nM) as the compound, how does the normalised viability read?
A: Its normalised viability is 97.4%.

Q: How did the normalised viability turn out when `O=P1(N(CCCl)CCCl)NCCCO1` (stereo not given) [Cyclophosphamide] (4 nM) was run?
A: Its normalised viability is 87.3%.

Q: With `S=P(N1CC1)(N1CC1)N1CC1` [Thio-TEPA] (10 nM) as the compound, how does the normalised viability read?
A: Its normalised viability is 86.2%.

Each compound was assayed on BT-474 in the same assay as above. Conditions: incubation time: 72 h.
Experimental: as §2

Q: With `N#Cc1ccc(COC[C@H]2O[C@@H](n3c(NCc4ccc(Cl)c(Cl)c4)nc4c(N)ncnc43)[C@H](O)[C@@H]2O)cc1` (1 nM) as the compound, how does the normalised viability read?
A: The normalised viability was 116%.
